The data set concerns Lupinus albus. Kind of data set: Greenhouse root penetration test in bitumen membranes (DIN CEN/TS 14416). Conditions: for No. of emerged plants average: 35 seeds planted; for No. of roots grew into bitumen average / No. of roots stopped at bitumen average / Plant height average: six weeks; for No. of roots grew thoughout bitumen average: average of 3 replicates. As to the method:
A greenhouse study was carried out to compare the effectiveness of different herbicides to prevent root penetration in bitumen roof sealing membranes without killing the plant or adversely affecting it.
The herbicides were incorporated into bitumen 160/220 (thickness 4.5-6 mm) during a standard bitumen manufacturing process. The manufacturing process comprised a step of heating the bitumen mixture before a fibreglass grid was incorporated as a reinforcement of the bitumen membrane.
The herbicides Napropamide (N,N-Diethyl-2-(1-naphthyloxy)propanamide, CAS No. (S)-(+) isomer: 41643-36-1) and Prodiamine (2,4-dinitro-N3,N3-dipropyl-6-(trifluoromethyl)-1,3-benzenediamine, CAS No. 29091-21-2) were formulated as oil dispersion with 25% active ingredient. The (R)-2-(4-chlorine-o-tolyloxy)propionic acid ethyl-hexylester (trader name: ‘HERBITECT™’, 2 ethylhexyl-2-(R)-2-(4-chloro-o-tolylory)propionate) may be obtained from Büsscher & Hoffman, Fabrikstrasse 2, A-4470 Enns, Austria and was formulated as oil dispersion with approx. 95% active ingredient.
Resistance of the bitumen against root penetration was evaluated according to the standard test method known in the art as: DIN CEN/TS 14416 ‘Geosynthetische Dichtungsbahnen—Prüfverfahren zur Bestimmung des Widerstandes gegen Wurzeln, Deutsche Fassung CEN/TS14416:2005’. Bitumen membranes containing Napropamide and Prodiamine, respectively were evaluated at active ingredient concentrations of 0.5%, 0.25%, 0.125% and 0.0625% based on raw bitumen. […] Bitumen membranes without incorporated herbicide were used as a control. Three discs with a diameter of 25 cm were punched out of each bitumen membrane and used for the study.
Unglazed, earthenware flowerpots approx. 22 cm high were filled with a soil-mixture [soil low in calcium/TKS1 (3:1)] to 10 cm from the bottom of the pot. Bitumen discs were put on top of the soil layer and the gap between the disc and the pot was sealed with aquarium silicone sealant. The diameter of the discs was approximately that of the internal diameter halfway up the pots. The bitumen discs were covered with approximately 9 cm soil and a plastic watering pipe was insert into the soil of each pot. Thirty five lupine seeds (Lupinus albus) were planted in the soil and covered with about 1 cm of soil. Two pots filled only with soil were used as a control for seed germination and plant growth.
The seeds were growing in a greenhouse under artificial light (14 h photoperiod, 20-22° C., relative humidity 60%). The soil above the bitumen disc was watered with rain water led through the plastic pipe into the pots so that the surface of the bitumen was kept damp. The soil beneath the bitumen discs was kept moist by standing from time to time the pots in water-filled trays. After six weeks the soil of the pots was removed from the roots by gentle running water. The bottom side of bitumen membranes was inspected to see whether any roots have grown through the bitumen, and the upper side was examined to assess the number of roots penetrating the bitumen and the depth of penetration. During the assessments, bitumen discs, roots, and above ground parts of the plants were recorded.

Setting [1] is: 0.38% active ingredient based on raw bitumen.
[2] abbreviates: 0.0625% active ingredient based on raw bitumen.
The mark [3] stands for this setting: 0.0625% active ingredient, replicate 1.
[4] abbreviates: 0.0625% active ingredient, replicate 2.
Where [5] appears, read: 0.0625% active ingredient, replicate 3.
Where [6] appears, read: 0.125% active ingredient based on raw bitumen.
[7] abbreviates: 0.125% active ingredient, replicate 1.
Where [8] appears, read: 0.125% active ingredient, replicate 2.
The mark [9] stands for this setting: 0.125% active ingredient, replicate 3.
[10] abbreviates: 0.25% active ingredient based on raw bitumen.
[11] abbreviates: 0.25% active ingredient, replicate 1.
The mark [12] stands for this setting: 0.25% active ingredient, replicate 2.
The mark [13] stands for this setting: 0.25% active ingredient, replicate 3.
Where [14] appears, read: 0.5% active ingredient based on raw bitumen.
Where [15] appears, read: 0.5% active ingredient, replicate 1.
The mark [16] stands for this setting: 0.5% active ingredient, replicate 2.
The mark [17] stands for this setting: 0.5% active ingredient, replicate 3.

With `CCCCC(CC)COC(=O)[C@@H](C)Oc1ccc(Cl)cc1C` (stereo partly drawn) [Herbitect, (R)-2-(4-chlorine-o-tolyloxy)propionic acid ethyl-hexylester], under setting [1], the “No. of emerged plants average” value came out at 33.0, the “No. of roots grew into bitumen average” value is reported as 46.7, the “No. of roots stopped at bitumen average” value is on record as “approx. >50” and the Plant height average turned out to be 34.0 cm. For the same compound, the “No. of roots grew thoughout bitumen average” value (0.38% active ingredient) was 0. Under “0.38% active ingredient, replicate 1”, the “No. of roots grew thoughout bitumen (3 replicates shown)” value is 0. In addition, the “No. of roots grew thoughout bitumen (3 replicates shown)” value (0.38% active ingredient, replicate 2) is reported as 0. For the same compound, the “No. of roots grew thoughout bitumen (3 replicates shown)” value (0.38% active ingredient, replicate 3) is given as 0. Besides, the “Penetration of upper side of bitumen compared to the untreated bitumen” value (at 0.38%) was “penetrated to less extent”. For the same compound, for the setting “standard product, 0.38%”, the “Root penetration throughout bitumen” value was “without any root penetration”.
Regarding `CCN(CC)C(=O)C(C)Oc1cccc2ccccc12` (centres unmarked) [Napropamide, N,N-Diethyl-2-(1-naphthyloxy)propanamide], the “No. of roots grew into bitumen average” value runs as follows: under setting [2], “approx. >50”; under setting [6], “approx. >50”; under setting [10], 40.0; under setting [14], 30.3. For the same compound, the “No. of roots stopped at bitumen average” value reads like this: under setting [2], “approx. >50”; under setting [6], “approx. >50”; under setting [10], “approx. >50”; under setting [14], “approx. >50”. In addition, the “No. of roots grew thoughout bitumen average” value is reported as 1.3 (0.0625% active ingredient), 0.7 (0.125% active ingredient), 0.3 (0.25% active ingredient) and 0.3 (0.5% active ingredient). In addition, the “No. of roots grew thoughout bitumen (3 replicates shown)” value runs as follows: under setting [3], 1; under setting [4], 1; under setting [5], 2; under setting [7], 0; under setting [8], 2; under setting [9], 0. Also, the “No. of roots grew thoughout bitumen (3 replicates shown)” value is reported as 0 under setting [11]; 0 under setting [12]; 1 under setting [13]; 1 under setting [15]; 0 under setting [16]; 0 under setting [17]. Further, the “Penetration of upper side of bitumen compared to the untreated bitumen” value (at 0.5% and 0.25%, respectively) was “penetrated to less extent”. Besides, the “Root elongation through bitumen” value (at 0.5% and 0.25%, exception in a replicate showing one root penetration) was “stopped completely”. Also, where the note is “in vivo”, the “Harm to the remaining plant parts” value is “not harmful”. The “Effectiveness to prevent root penetration of bitumen membranes” value (overall conclusion of the study) is given as “highly effective”.
Consider `CCCN(CCC)c1c([N+](=O)[O-])cc(C(F)(F)F)c(N)c1[N+](=O)[O-]` [Prodiamine, 2,4-dinitro-N3,N3-dipropyl-6-(trifluoromethyl)-1,3-benzenediamine], for which the “No. of emerged plants average” value runs as follows: under setting [2], 33.7; under setting [6], 34.7; under setting [10], 34.3; under setting [14], 34.3. Besides, the “No. of roots grew into bitumen average” value is, setting by setting: under setting [2], “approx. >50”; under setting [6], “approx. >50”; under setting [10], “approx. >50”; under setting [14], “approx. >50”. Further, the “No. of roots stopped at bitumen average” value under setting [2] is recorded as “approx. >50”, the “No. of roots stopped at bitumen average” value under setting [6] is “approx. >50”, the “No. of roots stopped at bitumen average” value under setting [10] is listed as “approx. >50” and the “No. of roots stopped at bitumen average” value under setting [14] is “approx. >50”. The Plant height average is, setting by setting: under setting [2], 33.7 cm; under setting [6], 32.3 cm; under setting [10], 31.0 cm; under setting [14], 34.0 cm. The “No. of roots grew thoughout bitumen average” value is 20.3 (0.0625% active ingredient), 12.0 (0.125% active ingredient), 6.7 (0.25% active ingredient) and 2.7 (0.5% active ingredient). Further, the “No. of roots grew thoughout bitumen (3 replicates shown)” value under setting [3] was 27; the “No. of roots grew thoughout bitumen (3 replicates shown)” value under setting [4] is 16; the “No. of roots grew thoughout bitumen (3 replicates shown)” value under setting [5] is 18; the “No. of roots grew thoughout bitumen (3 replicates shown)” value under setting [7] is reported as 12; the “No. of roots grew thoughout bitumen (3 replicates shown)” value under setting [8] was found to be 18; the “No. of roots grew thoughout bitumen (3 replicates shown)” value under setting [9] amounted to 6. Besides, the “No. of roots grew thoughout bitumen (3 replicates shown)” value under setting [11] is listed as 9; the “No. of roots grew thoughout bitumen (3 replicates shown)” value under setting [12] was 6; the “No. of roots grew thoughout bitumen (3 replicates shown)” value under setting [13] was 5; the “No. of roots grew thoughout bitumen (3 replicates shown)” value under setting [15] worked out at 1; the “No. of roots grew thoughout bitumen (3 replicates shown)” value under setting [16] is 3; the “No. of roots grew thoughout bitumen (3 replicates shown)” value under setting [17] turned out to be 4. The “Effectiveness to restrict root growth throughout bitumen” value (compared to Napropamide and the standard product HERBITECT) is given as “slightly less effective”.
